Measurements published in US7388002B2, “Nucleosides, preparation thereof and use as inhibitors of RNA viral polymerases” (BioCryst Pharmaceuticals, Inc., priority 2001, dated 2008).

Test system: stably HCV RNA-replicating cell line, AVA5
Assay: Antiviral Activity (HCV Replicon Assay)
Format: cell-based
Settings: intracellular HCV RNA levels (blot hybridization, normalized to B-actin RNA) in AVA5 cells (Huh7-derived), compound once daily for three days, read 24 hours after last dose
Protocol: HCV NS5B Polymerase Assay
Antiviral activity of the test compounds is assessed (Okuse et al., Antiviral Res. 2005, 65, 23-34) in the stably HCV RNA-replicating cell line, AVA5, derived by transfection of the human hepatoblastoma cell line, Huh7 (Blight et al., Sci. 2000, 290, 1972). Compounds are added to dividing cultures once daily for three days. Media is changed with each addition of compound. Cultures generally start the assay at 30-50% confluence and reach confluence during the last day of treatment. Intracellular HCV RNA levels and cytotoxicity are assessed 24 hours after the last dose of compound.
Triplicate cultures for HCV RNA levels (on 48-well and 96-well plates) and cytotoxicity (on 96-well plates) are used. A total of six untreated control cultures, and triplicate cultures treated with α-interferon and ribavirin serve as positive antiviral and toxicity controls.
Intracellular HCV RNA levels are measured using a conventional blot hybridization method in which HCV RNA levels are normalized to the levels of B-actin RNA in each individual culture (Okuse et al., Antivir. Res. 2005, 65, 23-34). Cytotoxicity is measured using a neutral red dye uptake assay (Korba and Gerin, Antivir. Res. 1992, 19, 55). HCV RNA levels in the treated cultures are expressed as a percentage of the mean levels of RNA detected in untreated cultures.

SMILES | % Inhibition at 10 μM [%]
CC(C)(C)OC(=O)COP(=O)(COCCC(CCO)n1cnc2c(N)ncnc21)OCC(=O)OC(C)(C)C (racemic) [Compound 34e, (±)-9-[(1-(2-Hydroxy)ethyl)(3-(di-tert-butyloxycarbonylmethylphosphono)methoxy)propyl]-adenine] | 41
CC(C)(C)OC(=O)COP(=O)(COCCC(CO)n1cnc2c(NC3CCCC3)ncnc21)OCC(=O)OC(C)(C)C (racemic) [Compound 73k, (±)-9-[(1-Hydroxymethyl)(3-(di-tert-butyloxycarbonylmethylphosphono)methoxy)propyl]-6-cyclopentylaminopurine] | 36
C=C(CCOCP(=O)(OCC(=O)OC(C)(C)C)OCC(=O)OC(C)(C)C)n1cnc2c(N)ncnc21 [Compound 34h, (±)-9-[(1-Methylene)(3-(di-tert-butyloxycarbonylmethylphosphono)methoxy)propyl]-adenine] | 35
CC(O)CC(COCP(=O)(OCOC(=O)C(C)(C)C)OCOC(=O)C(C)(C)C)n1cnc2c(N)ncnc21 (racemic) [Compound 56f, (±)-9-[1-[(Di-tert-butylcarbonyloxymethylphosphonomethoxy)methyl][(3-hydroxy)butyl]adenine] | 62
CC(C)(C)OC(=O)COP(=O)(COCCC(CO)n1cnc2c(-c3ccccc3)ncnc21)OCC(=O)OC(C)(C)C (racemic) [Compound 76a, (±)-9-[(1-Hydroxymethyl)(3-(di-tert-butyloxycarbonylmethylphosphono)methoxy)propyl]-6-phenylpurine] | 35
CC(O)C(COCP(=O)(OCC(=O)OC(C)(C)C)OCC(=O)OC(C)(C)C)n1cnc2c(-c3ccccc3)ncnc21 (racemic) [Compound 79a, (±)-9-[(1-Hydroxyethyl)(3-(di-tert-butyloxycarbonylmethylphosphono)methoxy)ethyl]-6-phenylpurine] | 48
CC(C)(C)OC(=O)COP(=O)(COCCC(CN)n1cnc2c(N)ncnc21)OCC(=O)OC(C)(C)C (racemic) [Compound 34d, (±)-9-[(1-Aminomethyl)(3-(di-tert-butyloxycarbonylmethylphosphono)methoxy)propyl]-adenine] | 60
CC(C)(C)OC(=O)COP(=O)(COCCC(CO)n1cnc2c(-c3ccsc3)ncnc21)OCC(=O)OC(C)(C)C (racemic) [Compound 76b, (±)-9-[(1-Hydroxymethyl)(3-(di-tert-butyloxycarbonylmethylphosphono)methoxy)propyl]-6-(3-thiophenyl)purine] | 18
